According to US6229029A, “11β-aryl substituted 14,17-ethanoestratriens, method for the production of these compounds and their use in the production of medicaments” (Schering Aktiengesellschaft, priority 1997, dated 2001):

Test system: uterus of infant rats
Experiment: Uterus growth test on infant rats (estrogenic action)
Type: in vivo, rat
Details: for Epithelial Height % E2 / Uterus Weight % E2: 3 days, infant rats
Excerpt: The influence of the compounds according to the invention on the uterus was examined in the uterus growth test (estrogenic action) and in the anti-uterus growth test (antiestrogenic action), both performed on infant rats.
In infant animals, both uterus and vagina show one of the estrogenic activity-dependent weight increases in their treatment with an estrogenically active substance. In the uterus, under estrogenic action, moreover, it results in a proliferation and height increase of the luminal epithelium.
Immature, normal rats (body weight 40-50 g) receive the substance s.c. over 3 days (d1-d3). On day 4 (d4), the animals are sacrificed with CO2. The uteri are prepared outside and weighed. A piece of the uterus, preferably a uterine horn, is set in formaldehyde for the histological evaluation and embedded in paraffin. The stimulation of the organ weights (relative to mg/100 g of body weight) and the epithelial height are indicated in percentage stimulation in comparison to the reference compound 17β-estradiol. (Substitution dose E2 0.3 μg/animal).

SMILES: C[C@]12C[C@H](c3ccc(OCCCCCS(=O)(=O)Cc4ccccn4)cc3)[C@@H]3c4ccc(O)cc4CC[C@H]3[C@]13CC[C@@]2(O)CC3 [Compound A]
- Epithelial Height % E2 (0.01 mg/kg s.c.): 6 % E2
- Uterus Weight % E2 (0.01 mg/kg s.c.): 2 % E2
- Epithelial Height % E2 (0.1 mg/kg s.c.): -16 % E2
- Uterus Weight % E2 (0.1 mg/kg s.c.): 0 % E2
- Epithelial Height % E2 (1 mg/kg s.c.): -8 % E2
- Uterus Weight % E2 (1 mg/kg s.c.): -7 % E2
- Epithelial Height % E2 (10 mg/kg s.c.): -22 % E2
- Uterus Weight % E2 (10 mg/kg s.c.): -15 % E2
- estrogenic action in the uterus (in words) (s.c., uterus growth test): without any estrogenic action in the uterus
